The record followed here is ChEMBL document CHEMBL1201862, “PubChem BioAssay data set” (2004).

The structures appear in SMILES notation.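 Where inhibition never reached the appropriate level, the endpoint shown equals the highest concentration tested. Otherwise, values were interpolated linearly from a five-concentration, 48-hour dose response in 96-well plates. The concentration for 50% growth inhibition is given as GI50.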 Activity calls are given as the source filed them. Cut-off read from the data, not from the text of the source: active = GI50 up to about 1.1 µM and inactive = higher.

Holding throughout (experiment): NCI tumour cell line growth inhibition, 48 h
For experiment [1], the system named is OVCAR-5.
Experiment [2] relates to OVCAR-3.
Experiment [3] concerns SK-OV-3.
The subject of experiment [4] is Malme-3M.
The test system of experiment [5] is NCI-H522.
The test system of experiment [6] is SK-MEL-28.
The subject of experiment [7] is KM12.
Experiment [8] has as its system HOP-92.
Experiment [9] deals with A549.
For experiment [10], the system named is ACHN.
The subject of experiment [11] is NCI-H226.
Experiment [12] deals with SF-268.
Experiment [13] relates to SK-MEL-5.
Experiment [14] deals with UO-31.
Experiment [15] deals with U-251.
The test system of experiment [16] is HL-60.
The test system of experiment [17] is A498.
The test system of experiment [18] is SR.

Regarding `N=c1oc2cc(O)c(O)cc2cc1C(N)=O`, the GI50 in experiment [1] was > 100 µM (inactive); in experiment [2], > 100 µM (inactive); in [3] it was > 100 µM (inactive); in experiment [4], > 100 µM (inactive); in experiment [5], 45.1 µM (inactive); in [6], > 100 µM (inactive). Moreover, the GI50 is > 100 µM (inactive) in experiment [7]; > 100 µM (inactive) in experiment [8]; > 100 µM (inactive) in [9]; > 100 µM (inactive) in experiment [10]; > 100 µM (inactive) in experiment [11]; 81.3 µM (inactive) in experiment [12]. Moreover, the GI50 in experiment [13] is > 100 µM (inactive); in [14], > 100 µM (inactive); in experiment [15], > 100 µM (inactive); in [16], > 10 µM (inactive); in [17], > 100 µM (inactive).
As to `CC(=O)c1ccc2c(c1)c1c(C)c3c[n+](C)ccc3c(C)c1n2C`, the GI50 in experiment [1] is 28.9 µM (inactive); in experiment [2] it was 12 µM (inactive); in experiment [3], 16.1 µM (inactive); in experiment [4], 10.4 µM (inactive); in experiment [5] it was 13.7 µM (inactive); in [6], 7.87 µM (inactive). Further, the GI50 in [7] was 10.6 µM (inactive); in experiment [8] it was 11.8 µM (inactive); in experiment [9] it was 13.9 µM (inactive); in experiment [11] it was 2.82 µM (inactive); in experiment [12], 0.469 µM (active); in [13] it was 4.73 µM (inactive). For the same molecule, the GI50 in [14] was 3.36 µM (inactive); in experiment [15], 0.706 µM (active); in experiment [16] it was 8.75 µM (inactive); in experiment [17] it was 6.41 µM (inactive).
For the molecule `Cc1nc(N)nn1C1OCC(O)C(O)C1O` (stereo not drawn), the GI50 in experiment [2], in [3], in experiment [4], in experiment [5], in [6] and in [7] was > 100 µM (inactive) throughout. Moreover, the GI50 in experiment [9], in [10], in experiment [12], in [13], in [14] and in experiment [15] was > 100 µM (inactive) each time. Also, the GI50 in [16] and in experiment [17] was > 100 µM (inactive) in each case.
For `O=C(c1ccccc1)c1c(CC(O)c2cccnc2)n(C(=O)c2ccccc2)c2ccccc12` (stereo not drawn), the GI50 is 17.9 µM (inactive) in experiment [1]; 16.6 µM (inactive) in experiment [2]; 13.5 µM (inactive) in experiment [18]; 23.8 µM (inactive) in experiment [4]; 13.1 µM (inactive) in experiment [5]; 17.7 µM (inactive) in [6]. The GI50 was 18.9 µM (inactive) in [7]; 15 µM (inactive) in [8]; 29.4 µM (inactive) in experiment [9]; 22.9 µM (inactive) in experiment [10]; 11.7 µM (inactive) in experiment [11]; 20 µM (inactive) in [12]. The GI50 in experiment [13] was 16.9 µM (inactive); in experiment [14], 14.1 µM (inactive); in [15] it was 17 µM (inactive); in experiment [16] it was 21.5 µM (inactive).
As to `c1ccc(Nc2nnc(-c3ccccc3Nc3ccccc3-c3nnc(Nc4ccccc4)s3)s2)cc1`, the GI50 in experiment [1], in [2], in experiment [4], in experiment [5], in [6] and in experiment [7] was > 100 µM (inactive) throughout. The GI50 in experiment [8] is 0.703 µM (active); in experiment [10], > 100 µM (inactive); in experiment [11] it was > 100 µM (inactive); in experiment [12] it was > 100 µM (inactive); in experiment [13] it was > 100 µM (inactive); in experiment [14], > 100 µM (inactive). The GI50 in [15] and in experiment [16] was > 100 µM (inactive) in each case.
As for `CC(=O)NNc1nc(C)c(C(=O)NNC(=O)C(=O)Nc2ccc(Cl)cc2)s1`, the GI50 in experiment [1] is > 100 µM (inactive); in experiment [2], 28.9 µM (inactive); in [3], > 100 µM (inactive); in experiment [18], 68.5 µM (inactive); in [4], > 100 µM (inactive); in [5] it was 31.8 µM (inactive). In addition, the GI50 in experiment [6] is > 100 µM (inactive); in experiment [7] it was > 100 µM (inactive); in [8], 39.5 µM (inactive); in experiment [9], > 100 µM (inactive); in experiment [10], 54.6 µM (inactive); in experiment [11], > 100 µM (inactive). For the same molecule, the GI50 in [12] is 49.7 µM (inactive); in experiment [13], > 100 µM (inactive); in [14], > 100 µM (inactive); in [15], > 100 µM (inactive); in experiment [16] it was > 100 µM (inactive).
`O=C1C(=O)N(c2cc(Cl)ccc2Cl)C(=O)C(=O)C1c1nc2ccccc2o1`: the GI50 in experiment [1] was > 100 µM (inactive); in experiment [2], > 67.5 µM (inactive); in experiment [3] it was > 100 µM (inactive); in experiment [4], > 100 µM (inactive); in experiment [5], 90.6 µM (inactive); in experiment [6], > 100 µM (inactive). For the same molecule, the GI50 in [7] was > 31.6 µM (inactive); in experiment [8], > 100 µM (inactive); in experiment [9] it was > 100 µM (inactive); in experiment [10], > 100 µM (inactive); in [12], > 100 µM (inactive); in [13], > 100 µM (inactive). Also, the GI50 in experiment [14] is > 70.8 µM (inactive); in [15], > 100 µM (inactive); in [16], 39.1 µM (inactive); in [17], > 100 µM (inactive).
As for `C1=CC(=NN=P(c2ccccc2)(c2ccccc2)c2ccccc2)C=C1`, the GI50 is > 100 µM (inactive) in experiment [1]; > 100 µM (inactive) in [2]; > 100 µM (inactive) in experiment [3]; > 100 µM (inactive) in [4]; 88.5 µM (inactive) in experiment [5]; > 100 µM (inactive) in [6]. In addition, the GI50 in [7] was > 100 µM (inactive); in [8], 55.2 µM (inactive); in experiment [9], > 100 µM (inactive); in experiment [10] it was > 100 µM (inactive); in experiment [12], > 100 µM (inactive); in experiment [13], > 100 µM (inactive). In addition, the results for the GI50 in experiment [14] and in experiment [16] were > 100 µM (inactive) and 98.2 µM (inactive), respectively.
With `CN(C)/C(=N\C#N)N(Cc1ccccc1)Cc1ccccc1`, the GI50 was > 100 µM (inactive) in experiment [1]; > 100 µM (inactive) in [2]; > 100 µM (inactive) in experiment [3]; > 100 µM (inactive) in experiment [4]; 24.9 µM (inactive) in experiment [5]; > 100 µM (inactive) in experiment [6]. Further, the GI50 in experiment [7] was > 100 µM (inactive); in experiment [8] it was 36.3 µM (inactive); in experiment [9], > 100 µM (inactive); in experiment [10], > 100 µM (inactive); in experiment [11], > 100 µM (inactive); in experiment [12] it was 98.2 µM (inactive). Moreover, the GI50 in experiment [13] is > 100 µM (inactive); in [14], 80.5 µM (inactive); in [15], > 100 µM (inactive); in experiment [16], 44.3 µM (inactive); in [17] it was 49 µM (inactive).
Regarding `Nc1ccc(/N=N/c2ccc(/C=C/c3ccc(/N=N/c4ccc(N)c5ccc(S(=O)(=O)O)cc45)cc3S(=O)(=O)O)c(S(=O)(=O)O)c2)c2cc(S(=O)(=O)O)ccc12`, the GI50 in experiment [1], in [2], in experiment [3], in experiment [4], in experiment [5] and in experiment [6] was > 100 µM (inactive) in each case. For the same molecule, the GI50 in [7] was > 100 µM (inactive); in experiment [8] it was 88.1 µM (inactive); in experiment [9], > 100 µM (inactive); in experiment [11], > 71.1 µM (inactive); in experiment [12], > 100 µM (inactive); in [13], > 100 µM (inactive). The GI50 in experiment [14], in [15], in experiment [16] and in experiment [17] was > 100 µM (inactive) in each case.
As to `c1ccc(N2N=C(c3ccco3)CC2c2ccco2)cc1` (stereo not drawn), the GI50 in experiment [1] was > 100 µM (inactive); in [2], 59.6 µM (inactive); in experiment [18], 30.3 µM (inactive); in [4], > 100 µM (inactive); in experiment [5], 46.9 µM (inactive); in [6], > 100 µM (inactive). Besides, the GI50 is 47.4 µM (inactive) in experiment [7]; > 100 µM (inactive) in [9]; 42.6 µM (inactive) in experiment [10]; 66.8 µM (inactive) in experiment [11]; > 100 µM (inactive) in experiment [12]; 51.4 µM (inactive) in experiment [13]. Moreover, the results for the GI50 in experiment [14], in [15] and in [16] were 28.6 µM (inactive), > 100 µM (inactive) and 25.2 µM (inactive), respectively.
Regarding `COCC1N=C(c2ccc(OC)c(OCc3ccccc3)c2OC)O[C@H]1c1ccccc1` (stereo partly drawn), the GI50 in experiment [1] is 25 µM (inactive); in [2], 16 µM (inactive); in experiment [3] it was 46.6 µM (inactive); in experiment [5], 20.8 µM (inactive); in experiment [6], 20.7 µM (inactive); in experiment [7], 21.2 µM (inactive). The GI50 in experiment [8] was 13.1 µM (inactive); in experiment [9], 24.5 µM (inactive); in experiment [10] it was 12.9 µM (inactive); in experiment [11], 29 µM (inactive); in [12] it was 25.8 µM (inactive); in experiment [13], 11.9 µM (inactive). Also, the GI50 is 4.89 µM (inactive) in [14], 18.1 µM (inactive) in experiment [15], 15.2 µM (inactive) in experiment [16] and 6.19 µM (inactive) in experiment [17].
`CCOc1ccc2nc(-c3ccc(O)cc3)sc2c1`: the GI50 was > 100 µM (inactive) in experiment [1]; 46.9 µM (inactive) in experiment [2]; 24.2 µM (inactive) in experiment [3]; > 100 µM (inactive) in [4]; 4.82 µM (inactive) in experiment [5]; 35 µM (inactive) in experiment [7]. Moreover, the GI50 in experiment [9] is > 100 µM (inactive); in [10], 61.2 µM (inactive); in experiment [11], > 100 µM (inactive); in experiment [12], 19.6 µM (inactive); in experiment [13] it was 89.5 µM (inactive); in experiment [14] it was 17.2 µM (inactive). Also, the GI50 in experiment [15] is 43.9 µM (inactive); in experiment [16], 2 µM (inactive); in [17], 30.4 µM (inactive).
